From the NIST ThermoML archive (doi:10.1016/j.jct.2004.12.008)
± gives the expanded uncertainty stated by the source.

Assay: xn = mol fraction of the nth substance listed
Conditions: 101 kPa, Liquid

O=[N+]([O-])c1ccccc1 [nitrobenzene] + Cc1cccc(C)c1
Conditions | mass density [kg/m3]
293.15 K, x2 = 0 | 1202.95 ± 2.3
293.15 K, x2 = 0.0549 | 1181.56 ± 2.1
293.15 K, x2 = 0.1248 | 1154.92 ± 1.9
293.15 K, x2 = 0.1832 | 1133.14 ± 1.8
293.15 K, x2 = 0.2489 | 1109.13 ± 1.7
293.15 K, x2 = 0.3134 | 1086.03 ± 1.5
293.15 K, x2 = 0.3681 | 1066.8 ± 1.4
293.15 K, x2 = 0.4234 | 1047.66 ± 1.3
293.15 K, x2 = 0.4892 | 1025.28 ± 1.2
293.15 K, x2 = 0.5321 | 1010.91 ± 1.1
293.15 K, x2 = 0.6013 | 988.09 ± 1.2
293.15 K, x2 = 0.6539 | 971.01 ± 1.3
293.15 K, x2 = 0.7242 | 948.56 ± 1.6
293.15 K, x2 = 0.7811 | 930.68 ± 1.8
293.15 K, x2 = 0.8631 | 905.36 ± 2.1
293.15 K, x2 = 0.9321 | 884.44 ± 2.3
303.15 K, x2 = 0 | 1193.56 ± 2.2
303.15 K, x2 = 0.0478 | 1174.85 ± 2.1
303.15 K, x2 = 0.1132 | 1149.78 ± 1.9
303.15 K, x2 = 0.1812 | 1124.32 ± 1.7
303.15 K, x2 = 0.2343 | 1104.85 ± 1.6
303.15 K, x2 = 0.2943 | 1083.27 ± 1.5
303.15 K, x2 = 0.3535 | 1062.36 ± 1.4
303.15 K, x2 = 0.4143 | 1041.29 ± 1.2
303.15 K, x2 = 0.4711 | 1021.95 ± 1.1
303.15 K, x2 = 0.5243 | 1004.13 ± 1
303.15 K, x2 = 0.6123 | 975.24 ± 1.3
303.15 K, x2 = 0.6811 | 953.14 ± 1.5
303.15 K, x2 = 0.7423 | 933.82 ± 1.7
303.15 K, x2 = 0.8132 | 911.82 ± 1.9
303.15 K, x2 = 0.8834 | 890.44 ± 2.2
303.15 K, x2 = 0.9432 | 872.53 ± 2.4
313.15 K, x2 = 0 | 1183.37 ± 2.1
313.15 K, x2 = 0.0723 | 1155.17 ± 1.9
313.15 K, x2 = 0.1289 | 1133.64 ± 1.8
313.15 K, x2 = 0.1732 | 1117.09 ± 1.7
313.15 K, x2 = 0.2212 | 1099.45 ± 1.6
313.15 K, x2 = 0.2811 | 1077.85 ± 1.4
313.15 K, x2 = 0.3635 | 1048.82 ± 1.2
313.15 K, x2 = 0.4244 | 1027.87 ± 1.1
313.15 K, x2 = 0.4823 | 1008.31 ± 1
313.15 K, x2 = 0.5423 | 988.4 ± 1.1
313.15 K, x2 = 0.6131 | 965.35 ± 1.3
313.15 K, x2 = 0.6732 | 946.15 ± 1.5
313.15 K, x2 = 0.749 | 922.4 ± 1.8
313.15 K, x2 = 0.8313 | 897.16 ± 2.1
313.15 K, x2 = 0.8724 | 884.76 ± 2.2
313.15 K, x2 = 0.9331 | 866.7 ± 2.4
323.15 K, x2 = 0 | 1172.38 ± 2
323.15 K, x2 = 0.0698 | 1145.18 ± 1.9
323.15 K, x2 = 0.1321 | 1121.54 ± 1.7
323.15 K, x2 = 0.1832 | 1102.55 ± 1.6
323.15 K, x2 = 0.2576 | 1075.53 ± 1.4
323.15 K, x2 = 0.3139 | 1055.55 ± 1.3
323.15 K, x2 = 0.3781 | 1033.23 ± 1.1
323.15 K, x2 = 0.4527 | 1007.89 ± 0.98
323.15 K, x2 = 0.5198 | 985.6 ± 1.1
323.15 K, x2 = 0.5631 | 971.45 ± 1.2
323.15 K, x2 = 0.6398 | 946.86 ± 1.5
323.15 K, x2 = 0.7043 | 926.6 ± 1.7
323.15 K, x2 = 0.7731 | 905.4 ± 1.9
323.15 K, x2 = 0.8343 | 886.88 ± 2.1
323.15 K, x2 = 0.8623 | 878.51 ± 2.2
323.15 K, x2 = 0.9423 | 854.95 ± 2.5
333.15 K, x2 = 0 | 1160.59 ± 1.9
333.15 K, x2 = 0.0499 | 1141.14 ± 1.8
333.15 K, x2 = 0.1244 | 1112.83 ± 1.6
333.15 K, x2 = 0.1674 | 1096.86 ± 1.5
333.15 K, x2 = 0.234 | 1072.65 ± 1.3
333.15 K, x2 = 0.3089 | 1046.1 ± 1.2
333.15 K, x2 = 0.3598 | 1028.47 ± 1.1
333.15 K, x2 = 0.4242 | 1006.59 ± 0.95
333.15 K, x2 = 0.4972 | 982.35 ± 1.1
333.15 K, x2 = 0.5672 | 959.63 ± 1.3
333.15 K, x2 = 0.6319 | 939.07 ± 1.5
333.15 K, x2 = 0.7133 | 913.77 ± 1.8
333.15 K, x2 = 0.7632 | 898.55 ± 2
333.15 K, x2 = 0.8347 | 877.13 ± 2.2
333.15 K, x2 = 0.8824 | 863.08 ± 2.4
333.15 K, x2 = 0.9323 | 848.58 ± 2.5
343.15 K, x2 = 0 | 1148 ± 1.9
343.15 K, x2 = 0.0598 | 1124.88 ± 1.7
343.15 K, x2 = 0.1123 | 1105.06 ± 1.5
343.15 K, x2 = 0.1842 | 1078.58 ± 1.4
343.15 K, x2 = 0.2542 | 1053.5 ± 1.2
343.15 K, x2 = 0.3243 | 1029.04 ± 1.1
343.15 K, x2 = 0.3831 | 1008.98 ± 0.93
343.15 K, x2 = 0.4425 | 989.14 ± 0.99
343.15 K, x2 = 0.5131 | 966.07 ± 1.2
343.15 K, x2 = 0.5728 | 946.96 ± 1.4
343.15 K, x2 = 0.6392 | 926.14 ± 1.6
343.15 K, x2 = 0.6901 | 910.47 ± 1.8
343.15 K, x2 = 0.7532 | 891.38 ± 2
343.15 K, x2 = 0.8242 | 870.31 ± 2.2
343.15 K, x2 = 0.8731 | 856.05 ± 2.4
343.15 K, x2 = 0.9238 | 841.48 ± 2.6
353.15 K, x2 = 0 | 1134.61 ± 1.8
353.15 K, x2 = 0.0532 | 1114.19 ± 1.6
353.15 K, x2 = 0.1289 | 1085.92 ± 1.4
353.15 K, x2 = 0.1984 | 1060.73 ± 1.2
353.15 K, x2 = 0.2429 | 1044.96 ± 1.1
353.15 K, x2 = 0.3092 | 1021.96 ± 0.98
353.15 K, x2 = 0.3711 | 1000.98 ± 0.85
353.15 K, x2 = 0.4248 | 983.16 ± 1
353.15 K, x2 = 0.4891 | 962.26 ± 1.2
353.15 K, x2 = 0.5518 | 942.3 ± 1.4
353.15 K, x2 = 0.6138 | 922.97 ± 1.6
353.15 K, x2 = 0.6731 | 904.84 ± 1.8
353.15 K, x2 = 0.7294 | 887.93 ± 2
353.15 K, x2 = 0.8013 | 866.76 ± 2.2
353.15 K, x2 = 0.8673 | 847.71 ± 2.5
353.15 K, x2 = 0.9451 | 825.73 ± 2.7
